Data as given in PubChem BioAssay AID248 (DTP/NCI, 2004).
Several values for one entry are separate records, joined by “and”; a condition that tells them apart may be missing. Equal entries are not always repeated. Inconclusive results and toxic doses are left out. No stated cut-off is given here; in the data, active means T/C of 150% or more; inactive means T/C below 125%.

Tested on: L1210 leukemia ip in BDF1 mice, survival T/C
Assay: NCI In Vivo Anticancer Drug Screen. Data for tumor model L1210 Leukemia (intraperitoneal) in B6D2F1 (BDF1) mice
Conditions: endpoint: mean survival time, higher = longer survival
How it was run: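 In this screen, tumor-bearing mice given compound are compared to those given vehicle, and their survival values are reported as a treated-to-control quotient.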

[1] = dose: 25.0 mg/kg/injection, schedule: Q01DX009 (ip), vehicle: Klucel (hydroxypropylcellulose) (HPC)
[2] = dose: 50.0 mg/kg/injection, schedule: Q01DX001 (ip), vehicle: saline
[3] = dose: 100.0 mg/kg/injection, schedule: Q01DX001 (ip), vehicle: carboxymethylcellulose (CMC)
[4] = dose: 100.0 mg/kg/injection, schedule: Q01DX001 (ip), vehicle: saline
[5] = dose: 200.0 mg/kg/injection, schedule: Q01DX001 (ip), vehicle: carboxymethylcellulose (CMC)
[6] = dose: 400.0 mg/kg/injection, schedule: Q01DX001 (ip), vehicle: carboxymethylcellulose (CMC)
[7] = dose: 200.0 mg/kg/injection, schedule: Q01DX001 (ip), vehicle: saline
[8] = dose: 100.0 mg/kg/injection, schedule: Q04DX003 (ip), vehicle: Klucel (hydroxypropylcellulose) (HPC)

Measured: T/C

Nc1ncnc2c1ncn2C1OC(CO)C(O)C1O (stereo unspecified)
inactive: dose: 6.25 mg/kg/injection, schedule: Q01DX009 (ip), vehicle: Klucel (hydroxypropylcellulose) (HPC) 115 % of control | dose: 7.8 mg/kg/injection, schedule: Q#A X012 (ip), vehicle: methylcellulose (MC) 102 % of control and 109 % of control | dose: 12.5 mg/kg/injection, schedule: Q01DX009 (ip), vehicle: Klucel (hydroxypropylcellulose) (HPC) 112 % of control | dose: 12.5 mg/kg/injection, schedule: Q04DX002 (ip), vehicle: Klucel (hydroxypropylcellulose) (HPC) 100 % of control | dose: 13.0 mg/kg/injection, schedule: Q#A X012 (ip), vehicle: methylcellulose (MC) 103 % of control and 109 % of control | dose: 22.0 mg/kg/injection, schedule: Q#A X012 (ip), vehicle: methylcellulose (MC) 102 % of control and 110 % of control | dose: 25.0 mg/kg/injection, schedule: Q01DX001 (ip), vehicle: saline 103 % of control | [1] 100 % of control and 108 % of control | dose: 25.0 mg/kg/injection, schedule: Q04DX002 (ip), vehicle: Klucel (hydroxypropylcellulose) (HPC) 107 % of control | dose: 25.0 mg/kg/injection, schedule: Q04DX003 (ip), vehicle: saline 105 % of control | dose: 36.0 mg/kg/injection, schedule: Q#A X012 (ip), vehicle: methylcellulose (MC) 106 % of control and 108 % of control | [2] 100 % of control | dose: 50.0 mg/kg/injection, schedule: Q01DX009 (ip), vehicle: Klucel (hydroxypropylcellulose) (HPC) 101 % of control and 107 % of control | dose: 50.0 mg/kg/injection, schedule: Q04DX002 (ip), vehicle: Klucel (hydroxypropylcellulose) (HPC) 97 % of control | dose: 50.0 mg/kg/injection, schedule: Q04DX003 (ip), vehicle: saline 116 % of control | dose: 60.0 mg/kg/injection, schedule: Q#A X012 (ip), vehicle: methylcellulose (MC) 106 % of control | [3] 100 % of control | [4] 100 % of control and 110 % of control | dose: 100.0 mg/kg/injection, schedule: Q01DX005 (ip), vehicle: saline 106 % of control and 95 % of control and 92 % of control | dose: 100.0 mg/kg/injection, schedule: Q01DX009 (ip), vehicle: Klucel (hydroxypropylcellulose) (HPC) 103 % of control | dose: 100.0 mg/kg/injection, schedule: Q01DX009 (ip), vehicle: saline 94 % of control | dose: 100.0 mg/kg/injection, schedule: Q04DX003 (ip), vehicle: saline 104 % of control and 112 % of control | dose: 118.0 mg/kg/injection, schedule: Q01DX005 (ip), vehicle: water 112 % of control | dose: 118.0 mg/kg/injection, schedule: Q01DX009 (ip), vehicle: water 112 % of control | dose: 150.0 mg/kg/injection, schedule: Q01DX009 (ip), vehicle: saline 105 % of control | dose: 177.0 mg/kg/injection, schedule: Q01DX005 (ip), vehicle: water 114 % of control | dose: 177.0 mg/kg/injection, schedule: Q01DX009 (ip), vehicle: saline with Tween-80 120 % of control | dose: 177.0 mg/kg/injection, schedule: Q01DX009 (ip), vehicle: water 111 % of control | [5] 100 % of control and 107 % of control | dose: 200.0 mg/kg/injection, schedule: Q01DX005 (ip), vehicle: saline 95 % of control and 101 % of control and 87 % of control | dose: 200.0 mg/kg/injection, schedule: Q01DX009 (ip), vehicle: Klucel (hydroxypropylcellulose) (HPC) 97 % of control | dose: 200.0 mg/kg/injection, schedule: Q01DX009 (ip), vehicle: carboxymethylcellulose (CMC) 114 % of control | dose: 200.0 mg/kg/injection, schedule: Q01DX009 (ip), vehicle: saline 102 % of control | dose: 200.0 mg/kg/injection, schedule: Q04DX003 (ip), vehicle: saline 94 % of control | dose: 266.0 mg/kg/injection, schedule: Q01DX005 (ip), vehicle: water 115 % of control | dose: 266.0 mg/kg/injection, schedule: Q01DX009 (ip), vehicle: saline with Tween-80 124 % of control | dose: 266.0 mg/kg/injection, schedule: Q01DX009 (ip), vehicle: water 112 % of control | dose: 300.0 mg/kg/injection, schedule: Q01DX009 (ip), vehicle: saline 102 % of control | [6] 106 % of control and 109 % of control | dose: 400.0 mg/kg/injection, schedule: Q01DX005 (ip), vehicle: water 112 % of control | dose: 400.0 mg/kg/injection, schedule: Q01DX009 (ip), vehicle: Klucel (hydroxypropylcellulose) (HPC) 116 % of control | dose: 400.0 mg/kg/injection, schedule: Q01DX009 (ip), vehicle: saline 107 % of control | dose: 400.0 mg/kg/injection, schedule: Q01DX009 (ip), vehicle: water 117 % of control | dose: 400.0 mg/kg/injection, schedule: Q04DX003 (ip), vehicle: saline 88 % of control | dose: 500.0 mg/kg/injection, schedule: Q03HX024 (ip), vehicle: saline with Tween-80 124 % of control | dose: 600.0 mg/kg/injection, schedule: Q01DX005 (ip), vehicle: water 110 % of control | dose: 600.0 mg/kg/injection, schedule: Q01DX009 (ip), vehicle: saline 109 % of control | dose: 600.0 mg/kg/injection, schedule: Q01DX009 (ip), vehicle: water 119 % of control | dose: 600.0 mg/kg/injection, schedule: Q03HX024 (ip), vehicle: saline with Tween-80 113 % of control | dose: 800.0 mg/kg/injection, schedule: Q01DX001 (ip), vehicle: carboxymethylcellulose (CMC) 107 % of control | dose: 800.0 mg/kg/injection, schedule: Q01DX009 (ip), vehicle: Klucel (hydroxypropylcellulose) (HPC) 103 % of control | dose: 800.0 mg/kg/injection, schedule: Q01DX009 (ip), vehicle: carboxymethylcellulose (CMC) 122 % of control | dose: 900.0 mg/kg/injection, schedule: Q01DX005 (ip), vehicle: water 115 % of control | dose: 900.0 mg/kg/injection, schedule: Q01DX009 (ip), vehicle: water 122 % of control | dose: 1000.0 mg/kg/injection, schedule: Q01DX009 (ip), vehicle: carboxymethylcellulose (CMC) 112 % of control | dose: 1200.0 mg/kg/injection, schedule: Q01DX009 (ip), vehicle: carboxymethylcellulose (CMC) 118 % of control | dose: 1600.0 mg/kg/injection, schedule: Q01DX001 (ip), vehicle: carboxymethylcellulose (CMC) 112 % of control

Cc1ccc(P(=O)(O)O)c([N+](=O)[O-])c1
inactive: [4] 94 % of control | [7] 92 % of control

CCCCOP(=O)(/C=C(\C#N)C(=O)OCC)OCCCC
inactive: [8] 87 % of control | dose: 200.0 mg/kg/injection, schedule: Q04DX003 (ip), vehicle: Klucel (hydroxypropylcellulose) (HPC) 103 % of control | dose: 400.0 mg/kg/injection, schedule: Q04DX003 (ip), vehicle: Klucel (hydroxypropylcellulose) (HPC) 98 % of control

CCOc1ccc(NC(=O)c2cc(C(=O)O)c(C(=O)Nc3ccc(OCC)cc3)cc2C(=O)O)cc1
inactive: dose: 100.0 mg/kg/injection, schedule: Q04DX002 (ip), vehicle: Klucel (hydroxypropylcellulose) (HPC) 109 % of control | dose: 400.0 mg/kg/injection, schedule: Q04DX002 (ip), vehicle: Klucel (hydroxypropylcellulose) (HPC) 109 % of control

Cc1cc(=O)c(CCl)n[nH]1
inactive: [1] 115 % of control | dose: 25.0 mg/kg/injection, schedule: Q04DX003 (ip), vehicle: Klucel (hydroxypropylcellulose) (HPC) 120 % of control | dose: 50.0 mg/kg/injection, schedule: Q04DX003 (ip), vehicle: Klucel (hydroxypropylcellulose) (HPC) 116 % of control | [8] 97 % of control and 89 % of control

O=C1C2(Cl)C3(Cl)C4(OCCO4)C4(Cl)C2(Cl)C2(Cl)C1(Cl)C3(Cl)C42Cl (stereo unspecified)
inactive: [2] 100 % of control | [4] 100 % of control | [7] 105 % of control | dose: 400.0 mg/kg/injection, schedule: Q01DX001 (ip), vehicle: saline 96 % of control

Cc1ccc2c(c1)C(c1ccccc1)(c1ccccc1)OC2
inactive: dose: 50.0 mg/kg/injection, schedule: Q01DX001 (ip), vehicle: carboxymethylcellulose (CMC) 101 % of control | [3] 95 % of control | [5] 89 % of control | [6] 101 % of control

CCS[P+](NC1CCCCC1)(NC1CCCCC1)NC1CCCCC1
inactive: dose: 25.0 mg/kg/injection, schedule: Q01DX009 (ip), vehicle: saline with Tween-80 94 % of control | dose: 25.0 mg/kg/injection, schedule: Q04DX002 (ip), vehicle: saline with Tween-80 103 % of control | dose: 50.0 mg/kg/injection, schedule: Q01DX009 (ip), vehicle: saline with Tween-80 100 % of control | dose: 50.0 mg/kg/injection, schedule: Q04DX002 (ip), vehicle: saline with Tween-80 98 % of control | dose: 100.0 mg/kg/injection, schedule: Q04DX002 (ip), vehicle: saline with Tween-80 88 % of control
